Publication PMC8451722, “Staphylococcus aureus Depends on Eap Proteins for Preventing Degradation of Its Phenol-Soluble Modulin Toxins by Neutrophil Serine Proteases” (Frontiers in Immunology, 2021)

Assays:
[1] = system: human neutrophils; assay: CD11b expression on neutrophils; format: cell-based; settings: USA300 culture filtrate 0,36% in RPMI, treated 24 hours with neutrophils +/- PMSF; neutrophils stimulated 60 min 37°C; flow cytometry
Method: Sterile filtered culture filtrates of S. aureus USA300 (0,36% in RPMI) or TSB were incubated for 24 hours either with or without addition of the NSP inhibitor PMSF and neutrophils. Activation of human neutrophils was determined by measuring surface expression of CD11b. Neutrophils were incubated with the treated culture filtrates at 37°C with rotation for 60 min as described elsewhere ([24]). Cells were stained with a PE-labeled antibody against CD11b (mAb 44; BD Biosciences) or isotype control antibody (BD Biosciences) as described previously. Then, neutrophils were analyzed on a FACS Fortessa cytometer (BD Biosciences)

[2] = target: T1, human FPR2/ALX (Homo sapiens, UniProt P25090); assay: Calcium mobilization in HL60 FPR2 cells; format: cell-based; settings: calcium flux
T1 construct: expressed in transfected cells; host or cells: HL60
T1 sequence (P25090 1-351): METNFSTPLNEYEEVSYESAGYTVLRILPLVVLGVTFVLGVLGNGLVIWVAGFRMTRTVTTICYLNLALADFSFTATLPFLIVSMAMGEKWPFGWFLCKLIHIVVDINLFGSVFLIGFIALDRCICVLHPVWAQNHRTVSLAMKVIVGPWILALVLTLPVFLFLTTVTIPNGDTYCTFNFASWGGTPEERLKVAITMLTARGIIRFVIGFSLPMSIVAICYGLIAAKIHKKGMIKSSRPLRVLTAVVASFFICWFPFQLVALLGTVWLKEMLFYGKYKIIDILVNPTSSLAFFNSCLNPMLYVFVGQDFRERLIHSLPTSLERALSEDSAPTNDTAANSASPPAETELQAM
Method: Culture filtrates of different bacterial strains (USA300, USA300ΔeapΔeapHIΔeapHII::ermB, S. epidermidis RN1457) were incubated with different amounts of neutrophils to investigate the potential of neutrophils to inactivate their PSM activity. Therefore, 100µl of sterile filtered overnight culture were incubated with 100µl neutrophils in RPMI at the indicated concentrations for six or 24 hours as described in the figure legends. After centrifugation, supernatants were collected and frozen at -20° until they were further analyzed for their FPR2 activity, for truncated PSM fragments and their cytotoxicity.
HL60 cells stably transfected with human FPR2/ALX (HL60-FPR2) have been described recently ([23]). These cells were grown in RPMI medium (Biochrom) supplemented with 10% FCS (Sigma-Aldrich), 20 mM Hepes (Biochrom), penicillin (100 units/ml), streptomycin (100 µg/ml) (Gibco), 1 × Glutamax (Gibco) and in the presence of G418 (Biochrom) at a final concentration of 1 mg/ml. […] Calcium fluxes were analyzed by stimulating cells loaded with Fluo-3-AM (Molecular Probes) and monitoring fluorescence with a FACSCalibur or a FACS Fortessa flow cytometer (BD Biosciences) as described recently ([23]).

[3] = target: T2, human neutrophil elastase (Homo sapiens, UniProt P08246); assay: Prevention of NSP-mediated PSMα3 degradation by NSP inhibitors (western blot); format: biochemical; settings: 100µM PMSF, one hour at 37°C, text: pre-incubation of neutrophils, Supplementary Figure 1: digestion with NE
T2 construct: purchased PanReac AppliChem
T2 sequence (P08246 30-267): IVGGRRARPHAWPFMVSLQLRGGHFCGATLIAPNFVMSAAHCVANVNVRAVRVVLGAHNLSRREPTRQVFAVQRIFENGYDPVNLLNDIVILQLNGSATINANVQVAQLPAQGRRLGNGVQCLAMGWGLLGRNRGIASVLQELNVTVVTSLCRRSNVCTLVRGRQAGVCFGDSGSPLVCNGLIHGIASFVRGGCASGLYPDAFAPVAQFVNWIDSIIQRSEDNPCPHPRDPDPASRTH
Method: (§1) PSMα3 (1,3µg) was digested either with 0,15 unit’s NE, CG or PR3 for one hour at 37°C with or without addition of PMSF (100µM) or 2µg Eap, 4µgEapH1 or 4µg EapH2. For digestion of PSMα3 by neutrophils, 25µl PSMα3 (20µM) was incubated for one hour with or without 5x10^6 neutrophils in 100µl RPMI at 37°C, 5% CO2. After centrifugation 10µl of the supernatant was used for western Blot analysis. After denaturation of the samples for two minutes at 85°C and addition of Tricine Sample Buffer, samples were subjected to a 10-20%- Tricine SDS gradient gel (Thermo Fischer Scientific). Then, proteins were blotted to a nitrocellulose membrane and blocked overnight using blocking buffer. After washing PSM α3 was visualized using rabbit anti-PSMα3 serum (kindly provided by Michael Otto) at a concentration of 1:10000 (for one hour, 4°C, under agitation). After washing with wash buffer (Tris buffered saline, BioRad +0,05% Tween, Merck), the secondary antibody goat anti rabbit IgG (Dylight 800 conjugate (LI-COR #2557) was added (diluted 1:10000 in blocking buffer) and incubated for one hour at 4°C. Protein bands were detected with the Licor Odyssey CLx.

[4] = target: T3, human neutrophil cathepsin G (Homo sapiens, UniProt P08311); assay: Degradation of PSMα3 by CG (western blot); format: in vitro ADME; settings: PSMα3 1,3µg, 0,15 units CG, one hour at 37°C, three independent experiments
T3 construct: purchased MyBioSource
T3 sequence (P08311 21-255): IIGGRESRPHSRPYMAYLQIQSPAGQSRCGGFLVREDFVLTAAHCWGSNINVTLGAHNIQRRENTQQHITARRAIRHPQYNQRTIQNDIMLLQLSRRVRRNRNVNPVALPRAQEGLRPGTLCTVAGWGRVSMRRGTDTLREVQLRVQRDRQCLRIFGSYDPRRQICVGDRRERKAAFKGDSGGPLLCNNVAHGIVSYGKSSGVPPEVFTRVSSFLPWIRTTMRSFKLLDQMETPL
Method: (§2) The three different human serine proteases human NE, PR3, 0.01 U and CG, 0.01 U were investigated and their potential to inactivate PSMα3 was compared. […] 28 ng/ml NE (stock: 1.4 mg/ml) were incubated for one hour at 37°C in RPMI plus 0.05% HSA to inactivate 500 nM PSMα3 in a total volume of 120 μl (0.012 μl NE in 60 μl RPMI). To avoid further degradation of PSMα3, all stimulations were prepared freshly and analyzed in different assays on the same day.
as §1, with “Then, proteins were blotted to a nitrocellulose membrane and blocked overnight using blocking buffer. After washing PSM α3 was visualized using rabbit anti-PSMα3 serum (kindly provided by Michael Otto) at a concentration of 1:10000 (for one hour, 4°C, under agitation).” left out

[5] = target: T2, human neutrophil elastase; assay: Degradation of PSMα3 by NE (western blot); format: in vitro ADME; settings: PSMα3 1,3µg, 0,15 units NE, one hour at 37°C, three independent experiments
Method: as §2
as §1, with “Then, proteins were blotted to a nitrocellulose membrane and blocked overnight using blocking buffer. After washing PSM α3 was visualized using rabbit anti-PSMα3 serum (kindly provided by Michael Otto) at a concentration of 1:10000 (for one hour, 4°C, under agitation).” left out

[6] = system: HL60 cells; assay: Cytotoxicity assay (LDH release), HL60 cells; format: cell-based, human; settings: three independent experiments
Method: 100 μl of synthetic PSMs, protease degraded PSMs or filtered bacterial culture supernatants were added to wells of a 96-well round bottom culture plate containing 10^5 neutrophils in 100 μl and plates were incubated at 37°C for up to 3 h. At the desired times, the stimulation was stopped by centrifugation for 10 minutes at 300 x g at RT, and cell lysis was determined by measuring the release of lactate dehydrogenase (LDH) using the Cytotoxicity Detection Kit (Roche Applied Sciences), according to the manufacturer’s instructions. As control, 100 μl TSB was diluted in RPMI without phenol red, mixed with human neutrophils (10^6) and tested for its ability to cause cell lysis. As control, lysis of HL60 cells was tested in pure RPMI/TSB without phenol red.

[7] = target: T4, human neutrophil proteinase 3 (Homo sapiens, UniProt P24158); assay: Degradation of PSMα3 by PR3 (western blot); format: in vitro ADME; settings: PSMα3 1,3µg, 0,15 units PR3, one hour at 37°C, three independent experiments
T4 construct: purchased MyBioSource
T4 sequence (P24158 28-256): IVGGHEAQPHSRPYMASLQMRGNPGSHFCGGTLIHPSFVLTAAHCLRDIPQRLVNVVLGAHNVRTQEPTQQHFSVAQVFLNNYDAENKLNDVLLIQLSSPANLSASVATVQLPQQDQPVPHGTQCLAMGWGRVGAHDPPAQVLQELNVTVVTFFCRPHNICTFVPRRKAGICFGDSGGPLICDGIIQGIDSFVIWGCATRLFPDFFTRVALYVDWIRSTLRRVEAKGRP
Method: as §2
as §1, with “Then, proteins were blotted to a nitrocellulose membrane and blocked overnight using blocking buffer. After washing PSM α3 was visualized using rabbit anti-PSMα3 serum (kindly provided by Michael Otto) at a concentration of 1:10000 (for one hour, 4°C, under agitation).” left out

SMILES	CD11b surface expression on neutrophils incubated with culture filtrates of a PSM-producing S. aureus strain in the presence of inhibitor [1]	PSM-mediated FPR2 activation by culture filtrates of PSM producing S. aureus in the simultaneous presence of neutrophils and inhibitor ([2]; HL60-FPR2 cells)	PSMα3-mediated activation of FPR2 in HL60-FPR2 cells after neutrophil treatment with PMSF pre-incubation ([2]; three independent experiments)	effect of NSP inhibitor PMSF on degradation of PSMα3 [3]	degradation of PSMα3 upon incubation with CG [4]	degradation of PSMα3 upon incubation with NE [5]	cytotoxicity of PSMα3 toward HL60 cells after treatment with NE, CG and PR3 [6]	degradation of PSMα3 upon incubation with PR3 [7]
O=S(=O)(F)Cc1ccccc1 [PMSF, Phenylmethylsulfonyl fluoride]	upregulation of CD11b	rescued PSM-mediated FPR2 activation	maintained the activation of FPR2	prevents degradation of PSMα3	–	–	–	–
CSCC[C@H](NC=O)C(=O)N[C@@H](CCC(=O)O)C(=O)N[C@@H](Cc1ccccc1)C(=O)N[C@H](C(=O)N[C@@H](C)C(=O)N[C@@H](CCCCN)C(=O)N[C@@H](CC(C)C)C(=O)N[C@@H](Cc1ccccc1)C(=O)N[C@@H](CCCCN)C(=O)N[C@@H](Cc1ccccc1)C(=O)N[C@@H](Cc1ccccc1)C(=O)N[C@@H](CCCCN)C(=O)N[C@@H](CC(=O)O)C(=O)N[C@@H](CC(C)C)C(=O)N[C@@H](CC(C)C)C(=O)NCC(=O)N[C@@H](CCCCN)C(=O)N[C@@H](Cc1ccccc1)C(=O)N[C@@H](CC(C)C)C(=O)NCC(=O)N[C@@H](CC(N)=O)C(=O)N[C@@H](CC(N)=O)C(=O)O)C(C)C [PSMα3]	–	–	–	–	readily degraded	readily degraded	abolished	readily degraded
